Patent US11896560B2, “Cannabinoid dosing regime for dermatitis and inflammatory skin conditions” (Botanix Pharmaceuticals LTD, priority 2018, dated 2024)

Columns and labels:
[1] = Skin permeation of CBD formulation in Franz-type diffusion cell; assay type: in vitro ADME
Method: Dermatomed skin from a single donor was mounted in a Franz-type diffusion cell (0.55 cm^2 receptor fluid exposure surface area) and dosed with 5 ul of CBD formulated in an mixture of a volatile solvent (hexylmethyldisiloxane/polymethylsiloxane—93% w/w), and residual solvent (arlamol E—2% w/w) at a concentration of 5.0% (w/w; 35.5 mg/ml). Following dosing, receptor phase samples were collected at 4, 10, 24 and 48 hours; after which the study was terminated.
The residual formulation was removed by tape stripping and the epidermis and dermis separated by blunt dissection. The levels of CBD in the epidermis, dermis, and receptor fluid samples were then analyzed using a bioanalytical method with LC-MS/MS detection.

[2] = target: human vanilloid receptor type 1 (VR1) (Homo sapiens, UniProt Q8NER1); details: in vitro; cited from earlier work
anandamide = details: in vitro; cited from earlier work
sensitized guinea-pigs = details: intravenous administration; cited from earlier work
rats = details: injected into rats; cited from earlier work
[3] = 5.0% w/w CBD formulation, 48-hour period
[4] = 5 ul of 5.0% w/w CBD formulation, over the 48-hour exposure period
[5] = following application of CBD mixture, 48 hours

Chain of human vanilloid receptor type 1 (VR1) (Q8NER1 whole entry): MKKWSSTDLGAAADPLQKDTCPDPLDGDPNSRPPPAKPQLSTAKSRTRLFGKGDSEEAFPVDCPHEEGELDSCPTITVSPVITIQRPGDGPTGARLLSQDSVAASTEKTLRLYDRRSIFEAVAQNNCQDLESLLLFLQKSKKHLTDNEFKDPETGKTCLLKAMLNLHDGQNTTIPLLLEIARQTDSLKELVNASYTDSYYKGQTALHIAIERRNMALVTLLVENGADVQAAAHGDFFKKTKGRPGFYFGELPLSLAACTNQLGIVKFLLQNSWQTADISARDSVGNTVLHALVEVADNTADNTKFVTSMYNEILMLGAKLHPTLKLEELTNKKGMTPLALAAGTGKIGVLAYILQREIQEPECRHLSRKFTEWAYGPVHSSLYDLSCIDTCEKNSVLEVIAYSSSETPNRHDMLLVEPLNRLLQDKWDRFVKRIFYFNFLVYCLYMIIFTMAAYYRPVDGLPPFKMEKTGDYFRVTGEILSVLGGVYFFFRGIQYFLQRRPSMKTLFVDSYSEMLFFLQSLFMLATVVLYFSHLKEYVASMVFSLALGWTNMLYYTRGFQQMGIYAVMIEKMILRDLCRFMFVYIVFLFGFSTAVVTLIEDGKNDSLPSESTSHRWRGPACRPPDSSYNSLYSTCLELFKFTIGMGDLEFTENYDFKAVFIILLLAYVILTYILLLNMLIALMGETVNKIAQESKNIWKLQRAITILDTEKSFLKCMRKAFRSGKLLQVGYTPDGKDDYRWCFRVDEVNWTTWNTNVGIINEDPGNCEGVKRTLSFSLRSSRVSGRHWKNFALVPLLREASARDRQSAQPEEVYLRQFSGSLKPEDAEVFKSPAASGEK

C=C(C)C1CCC(C)=CC1c1c(O)cc(CCCCC)cc1O (centres unmarked) [CBD, 2-[3-methyl-6-(1-methylethenyl)-2-cyclohexen-1-yl]-5-pentyl-1,3-benzenediol]
dermal deposition of CBD [1, 3]: 4.54 % of the applied dose | epidermal deposition of CBD [1, 3]: 13.17 % of the applied dose | CBD in the receptor phase (skin permeation), amount per area [1, 4]: < 278 ng/cm^2 | CBD in the receptor phase (skin permeation), percent of applied dose [1, 4]: less than 0.081% | dermis concentration per area [1, 5]: 8,408 ng/cm^2 | dermis concentration per tissue weight [1, 5]: 1,933 ng/g of tissue | dermis concentration per volume [1, 5]: ~1,933 ng/mL | effect on human vanilloid receptor type 1 (VR1) [2]: stimulate | effect on anandamide (anandamide): inhibit | effect on airway obstruction (sensitized guinea-pigs): reduced airway obstruction | effect on cardiac inflammation (rats): attenuated cardiac inflammation
